Measurements as given in article PMC9940851, “Seleno Containing Compounds as Potent and Selective Antifungal Agents” (ACS Infectious Diseases, 2022).
Converted amounts (≈) assume the structure as drawn.

Tests used:
MgCA = target: T1, MgCA (Malassezia globosa, UniProt A8Q1N3); assay: stopped-flow CO2 hydrase assay; format: biochemical
T1 construct: gene MGL_1814
T1 sequence (A8Q1N3 1-241): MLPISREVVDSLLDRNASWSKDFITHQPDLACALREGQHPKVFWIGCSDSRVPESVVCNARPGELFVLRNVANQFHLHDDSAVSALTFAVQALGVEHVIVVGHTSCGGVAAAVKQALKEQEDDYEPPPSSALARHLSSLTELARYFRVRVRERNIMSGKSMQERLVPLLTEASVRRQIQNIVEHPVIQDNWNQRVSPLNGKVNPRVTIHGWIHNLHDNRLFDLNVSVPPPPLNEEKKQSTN
Summary of the method: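 Stopped-flow recording over 10–100 s followed CO2 hydration (1.7–17 mM CO2) in 20 mM Hepes pH 7.4 plus 20 mM Na2SO4, using 0.2 mM phenol red at 557 nm, after recombinant carbonic anhydrase (5–12 nM) had been preincubated with inhibitor for 15 min at room temperature. Initial rates, corrected for uncatalysed rates, came from at least six traces, and at least three determinations were averaged. Ki was calculated by nonlinear least-squares fitting with the Cheng-Prusoff equation.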

[1] = tested on: T2, M. pachydermatis DSMZ 6172; assay: microbe, parasite or virus in culture; design: broth microdilution MIC, M. pachydermatis and Candida, 35 °C; details: Malassezia pachydermatis, DSMZ6172
T2 construct: DSMZ 6172 (CDC 16334)
Method: (§1) Inoculum preparations for antifungal assays were performed following the CLSI guidelines for antifungal susceptibility testing of yeasts.[31] Antifungal activity was evaluated on unicellular yeasts Candida albicans ATCC 10231, Candida glabrata ATCC 90030 (DSMZ 11226), Malassezia pachydermatis CDC 16334 (DSMZ 6172), Malassezia globosa ATCC MYA 4612, and Malassezia furfur ATCC 14521. All the fungal strains were stored at −80 °C in cryovials. Then Candida spp. and Malassezia pachydermatis were reactivated in RPMI 1640 broth for 24–48 h at 35 °C. The so obtained fresh cultures were streaked onto Sabouraud dextrose agar and incubated for 24–48 h at 35 °C. Malassezia globosa and furfur were reactivated in modified RPMI 1640 broth[32] for 24–48 h at 35 °C (M. furfur) and 33 °C (M. globosa), and then the cultures were streaked onto Leeming and Notman agar (MLNA) and incubated for 48–72 h at 35 °C for M. furfur and at 33 °C for M. globosa. The fungal inoculum for the testing was prepared by suspending in phosphate buffer (PB) 10 mM pH 7 4–5 colonies of about 1 mm diameter. The fungal suspension was then adjusted to a final optical density of 0.5 McFarland standard (1–5 × 10^6 cells/mL). The compound solutions were tested in a range of concentrations from 0.01 μg/mL to 256 μg/mL, and 50 μL were then added in 96 wells microtiter plates with 50 μL of fungal inoculum and incubated for 24–48 h at 35 °C. Growth and sterility controls were performed. […] Compounds 3a, 3c, 5b, 7a–d, 9c, 11e, 11i, and 14a,b were selected as representatives of the chemical moieties synthesized prior to their screen on yeasts of biomedical relevance such as M. pachydermatis DSMZ 6172, C. albicans ATCC 10231, and C. glabrata ATCC 90030 (DSMZ 11226) strains. The clinical used drugs Ketoconazole, SeS2, and Amphotericin B were included as references (Table 1).

MpaCA = target: T3, MpaCA (Malassezia pachydermatis, UniProt A0A0M8MPA4); assay: stopped-flow CO2 hydrase assay; format: biochemical
T3 construct: gene Malapachy_3798
T3 sequence (A0A0M8MPA4 1-242): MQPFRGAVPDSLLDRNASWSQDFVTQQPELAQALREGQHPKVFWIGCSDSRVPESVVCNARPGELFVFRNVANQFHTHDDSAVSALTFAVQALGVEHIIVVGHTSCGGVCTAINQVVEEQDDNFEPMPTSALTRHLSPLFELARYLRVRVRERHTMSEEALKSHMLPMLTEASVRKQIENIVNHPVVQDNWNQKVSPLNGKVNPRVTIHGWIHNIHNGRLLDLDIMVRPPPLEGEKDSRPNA

M. globosa ATCC MYA 4612 = tested on: T4, M. globosa ATCC MYA 4612; assay: microbe, parasite or virus in culture; details: Malassezia globosa
T4 construct: ATCC MYA 4612
Method: as §1

ATCC M. furfur 14521 = tested on: T5, ATCC M. furfur 14521; assay: microbe, parasite or virus in culture; details: Malassezia furfur
T5 construct: ATCC 14521
Method: as §1

Row | Structure (SMILES) | Ki (MgCA) [µM] | MIC [1] [µg/mL] | Ki (MpaCA) [µM] | MIC (M. globosa ATCC MYA 4612) [µg/mL] | MIC (ATCC M. furfur 14521) [µg/mL]
1 | NS(=O)(=O)c1ccc(NC(=[Se])NC(=O)c2ccc(F)cc2)cc1 [7k, 4-Fluoro-N-((4-sulfamoylphenyl)carbamoselenoyl)benzamide] | 8.29 | 0.5 (≈ 1.25 µM) | 80.8 | 256 (≈ 640 µM) | 5.3 ± 2.31 (≈ 13.2 µM)
2 | NS(=O)(=O)c1cccc(NC(=[Se])NC(=O)c2ccccc2)c1 [8a] | 4.14 | 2 (≈ 5.23 µM) | 33.7 | 128 (≈ 335 µM) | 21.3 ± 9.24 (≈ 55.7 µM)
3 | O=C(NC(=[Se])Nc1ccc(S(=O)(=O)Nc2nccs2)cc1)c1ccc(F)cc1 [10e, 4-Fluoro-N-((4-(N-(thiazol-2-yl)sulfamoyl)phenyl)carbamoselenoyl)benzamide] | 8.9 | 1 (≈ 2.07 µM) | 80.3 | 128 (≈ 265 µM) | 2.3 ± 2.31 (≈ 4.76 µM)
4 | NS(=O)(=O)c1cccc(NC(=[Se])NC(=O)c2ccc(Cl)cc2)c1 [8f, 4-Chloro-N-((3-sulfamoylphenyl)carbamoselenoyl)benzamide] | 2.08 | 16 (≈ 38.4 µM) | 74.7 | 128 (≈ 307 µM) | 64 (≈ 154 µM)
5 | NS(=O)(=O)c1ccc(NC(=[Se])Nc2cccc(C(F)(F)F)c2)cc1 [3d] | 0.803 | 6 ± 3.46 (≈ 14.2 µM) | 0.617 | > 256 | 213 ± 73.9 (≈ 505 µM)
6 | CCCCCCCc1ccc(C(=O)NC(=[Se])Nc2cc(S(N)(=O)=O)ccc2O)cc1 [11b] | 4.93 | 8 (≈ 16.1 µM) | 78 | 256 (≈ 516 µM) | 5.3 ± 2.31 (≈ 10.7 µM)
7 | NS(=O)(=O)c1ccc(CCNC(=[Se])Nc2ccc(I)cc2)cc1 [5g] | 0.689 | 1 (≈ 1.97 µM) | 0.531 | 85.3 ± 37 (≈ 168 µM) | 1.7 ± 0.58 (≈ 3.34 µM)
8 | NS(=O)(=O)c1ccc(NC(=[Se])Nc2ccccc2Cl)cc1 [3e] | 0.655 | 1 ± 0.87 (≈ 2.57 µM) | 0.693 | 256 (≈ 659 µM) | 5.3 ± 2.31 (≈ 13.6 µM)
9 | NS(=O)(=O)c1ccc(NC(=[Se])NC(=O)c2ccc(I)cc2)cc1 [7g, 4-Iodo-N-((4-sulfamoylphenyl)carbamoselenoyl)benzamide] | 3.11 | 0.5 (≈ 0.984 µM) | 76.1 | 256 (≈ 504 µM) | 6 ± 3.46 (≈ 11.8 µM)
10 | NS(=O)(=O)c1ccc(O)c(NC(=[Se])NC(=O)c2ccc(Cl)cc2)c1 [11f, 4-Chloro-N-((2-hydroxy-5-sulfamoylphenyl)carbamoselenoyl)benzamide] | 5.13 | 0.5 (≈ 1.16 µM) | 54.2 | 256 (≈ 592 µM) | 4 (≈ 9.24 µM)
11 | CCCCCCCc1ccc(C(=O)NC(=[Se])Nc2ccc(S(=O)(=O)Nc3nccs3)cc2)cc1 [10c, 4-Heptyl-N-((4-(N-(thiazol-2-yl)sulfamoyl)phenyl)carbamoselenoyl)benzamide] | 60.6 | 0.8 ± 0.29 (≈ 1.42 µM) | 91.9 | > 256 | 4 (≈ 7.1 µM)
12 | O=C(NC(=[Se])Nc1ccc(S(=O)(=O)Nc2nccs2)cc1)c1cc(Br)cc(OC(F)(F)F)c1 [10b, 3-Bromo-N-((4-(N-(thiazol-2-yl)sulfamoyl)phenyl)carbamoselenoyl)-5-(trifluoromethoxy)benzamide] | 9.26 | 16 (≈ 25.5 µM) | 85.3 | 341 ± 148 (≈ 543 µM) | 427 ± 148 (≈ 679 µM)
13 | NS(=O)(=O)c1cccc(NC(=[Se])NC(=O)c2cc(Br)cc(OC(F)(F)F)c2)c1 [8c, 3-Bromo-N-((3-sulfamoylphenyl)carbamoselenoyl)-5-(trifluoromethoxy)benzamide] | 7.65 | 2 (≈ 3.67 µM) | 86.1 | 256 (≈ 470 µM) | 9.3 ± 6.11 (≈ 17.1 µM)
14 | NS(=O)(=O)c1ccc(O)c(NC(=[Se])NC(=O)c2ccc(Br)cc2F)c1 [11g, 4-Bromo-2-fluoro-N-((2-hydroxy-5-sulfamoylphenyl)carbamoselenoyl)benzamide] | 6.01 | 3.33 ± 1.15 (≈ 6.72 µM) | 70.9 | 256 (≈ 517 µM) | 5.3 ± 2.31 (≈ 10.7 µM)
15 | NS(=O)(=O)c1ccc(CCNC(=[Se])NC(=O)c2ccccc2)cc1 [9a] | 0.565 | 1 (≈ 2.44 µM) | 73.9 | 32 (≈ 78 µM) | 4 (≈ 9.75 µM)
16 | CCCCCCCc1ccc(C(=O)NC(=[Se])Nc2ccc(S(N)(=O)=O)cc2)cc1 [7e] | 5.88 | 0.5 (≈ 1.04 µM) | 78.2 | > 256 | 10.7 ± 4.62 (≈ 22.3 µM)
17 | NS(=O)(=O)c1ccc(CCNC(=[Se])Nc2ccc3ccccc3c2)cc1 [5h] | 0.561 | 0.5 (≈ 1.16 µM) | 0.26 | 64 (≈ 148 µM) | 1.7 ± 0.58 (≈ 3.93 µM)
18 | NS(=O)(=O)c1cccc(NC(=[Se])NC(=O)c2ccc(Br)cc2F)c1 [8g, 4-Bromo-2-fluoro-N-((3-sulfamoylphenyl)carbamoselenoyl)benzamide] | 3.48 | 13.3 ± 4.6 (≈ 27.8 µM) | 65.7 | 128 (≈ 267 µM) | 8 (≈ 16.7 µM)
19 | NS(=O)(=O)c1ccc(O)c(NC(=[Se])NC(=O)c2ccc(I)cc2)c1 [11d, N-((2-Hydroxy-5-sulfamoylphenyl)carbamoselenoyl)-4-iodobenzamide] | 2.93 | 13.3 ± 4.6 (≈ 25.4 µM) | 7.5 | 128 (≈ 244 µM) | 10.7 ± 4.62 (≈ 20.4 µM)
20 | NS(=O)(=O)c1ccc(O)c(NC(=[Se])NC(=O)c2ccc(CCl)cc2)c1 [11h, 4-(Chloromethyl)-N-((2-hydroxy-5-sulfamoylphenyl)carbamoselenoyl)benzamide] | 6.49 | 4 (≈ 8.95 µM) | 76.6 | > 256 | 74.7 ± 48.9 (≈ 167 µM)
21 | O=C(NC(=[Se])Nc1ccc(S(=O)(=O)Nc2nccs2)cc1)c1ccc(I)cc1 [10f, 4-Iodo-N-((4-(N-(thiazol-2-yl)sulfamoyl)phenyl)carbamoselenoyl)benzamide] | 10.2 | 2 (≈ 3.38 µM) | 74.3 | > 256 | 5.3 ± 2.31 (≈ 8.96 µM)
